Source: PMC4914250, “Cancer therapeutic approach based on conformational stabilization of mutant p53 protein by small peptides” (Oncotarget, 2016)

Columns and labels:
mutp53^R175H = assay: ELISA of mutp53 conformation (PAb1620/PAb240), H1299-p53^R175H cell extract; assay type: biochemical, human; conditions: for Conform H1299: score 0-6 compared to positive control, mutp53 conformation; for reactivity of p53^R175H with PAb1620 and PAb240: H1299-p53^R175H cell extract, Figure 2A
Excerpt: A total of close to 350 peptides, deduced from the phage sequences, were synthesized and subjected to several alternative complementary methods of semi high-throughput functional screening; we refer to these peptides as pCAPs (p53 conformation activating peptides). First, we used cell-free ELISA assays to evaluate the effect of individual peptides on mutp53 conformation and DNA binding in vitro. For conformation analysis (Figure 2A), microtiter plates were coated with PAb240, PAb1620 or PAb421 as control, then the effect of each peptide on reactivity of mutp53 with these antibodies was examined; WTp53 served as a positive control for PAb1620 reactivity.
Cell extracts were added to ELISA plates coated with the indicated antibodies to allow mutp53 to react with the peptides and antibodies. αp53-HRP Ab was used for assessment of p53 levels. Numbers represent ratio of absorbance between the PAb1620 and PAb240 samples. All reads were normalized to the control […] reading of each extract. MCF7 (WTp53) and H1299-mutp53^A135V (tsp53) cells were used as positive controls for the WTp53 conformation (1620/240 ratio equals or exceeds 5:1). […] 96 well plates were coated with anti-p53 antibody, cell extracts containing p53 were reacted with oligonucleotides that contain a p53RE consensus binding site, labeled with biotin, in the presence or absence (NT) of test peptides. Streptavidin-HRP is used to quantify the amount of oligos in the well. TMB assay was performed to determine bound mutp53 levels (450nm). MCF7 and the H1299-mutp53^A135V(TS) cells serve as positive controls for WTp53. C.and D. - Bar graphs illustrating the effect of various selected peptides on mut-p53 dependent expression on cell viability. […] D, ES2 cells expressing endogenous mutp53 (blue bars) and ES2 cells knocked out for p53 by CRISPR construct (light blue bars). Cell lines were treated with selected peptides, Cis-platinum was used as positive control for cell death. 48 hours after treatment, cells were washed with PBS, and the remaining attached cells were stained with Crystal violet and washed 4 times with PBS. Stained cells were dissolved in 10% acetic acid and plates were taken for optical density measurement at […]. TEXT PRINTED IN THE PICTURE: (A) pCAP1: 0.87 | (A) pCAP2: 0.53 | (A) pCAP3: 0.59 | (A) pCAP4: 0.59 | (A) pCAP5: 0.60 | (A) pCAP6: 0.75 | (A) pCAP23: 1.06 | (A) pCAP24: 1.44 | (A) pCAP36: 1.25 | (A) pCAP47: 1.54 | (A) pCAP54: 1.54 | (A) pCAP60: 2.73 | (A) pCAP68: 2.22 | (A) pCAP83: 1.56 | (A) pCAP97: 2.45 DOUBTS OF THE COPYIST ABOUT THIS PICTURE: Panel A: the numbers over the bars are printed very small, rotated and blurred, so 3, 5, 6, 8 and 9 cannot be told apart with certainty. All values are best readings: pCAP1 0.87, pCAP2 0.53, pCAP3 0.59, pCAP4 0.59, pCAP5 0.60, pCAP6 0.75, pCAP23 1.06, pCAP24 1.44, pCAP36 1.25, pCAP47 1.54, pCAP54 1.54, pCAP60 2.73, pCAP68 2.22, pCAP83 1.56, pCAP97 2.45 / Panel A: the picture prints no measure with the numbers over the bars, so they are given as bare numbers / Panel A: numbers are also printed over the controls, which are not substances and are left out of lines. Best readings: NT 0.60, 60° 30'' 0.48, 60° 1' 0.37, 60° 3' 0.13, 60° 10' 0.05, MCF7 3.32, H1299TS 3.25
Extracts were prepared at a concentration of 750ng/μl and then reacted for 2 hours with different peptides. Plates coated with the different antibodies were then washed and blocked, and extracts pre-incubated either with or without peptides were added for two additional hours. After removal of extracts, plates were washed and incubated with HRP-conjugated anti-p53 antibody. Finally, HRP activity was quantified by optical density at 450nm. MCF7 cells (expressing WTp53) and H1299-tsp53^A135V cells, stably expressing a temperature sensitive p53 mutant that has mutant conformation at 37°C but WT conformation at 32°C [31], were used as positive controls for the WTp53 conformation (1620/240 ratio 5:1). […]

EP156 = assay: Crystal violet viability assay, EP156; assay type: cell-based; design: key: score 0- no effect-white; score 6- as or more effective than positive control- black; conditions: score 0-6 compared to positive control, 48 h
Excerpt: (§1) We also performed a similar analysis on ES2 ovarian cancer cells, which express endogenous mp53^S241F, compared to ES2 cells in which p53 was stably knocked out using CRISPR/Cas9 (ES2 p53KO Figure S1F), to control for specificity for mutp53 (Figure 2D). In ES2 cells, too, some of the peptides caused a significant reduction in cell numbers, more prominent in the mutp53 expressing cells than in their p53KO counterparts. […] Overall, we performed this analysis on several different mutp53-expressing human cancer cell lines, and the results are summarized in Table S3. Based on this comprehensive picture, we reduced the number of most promising candidate lead peptides to 30. These peptides were then synthesized with an 8 arginine C-terminal tail for enhanced delivery across cell membranes (pCAPs 130-160); for clarity, peptides are referred to by their original number, with an R for poly arginine (see Table S3).
(§2) Cells were cultured in 96 wells plates with 2500-4000 cells/well. Serial dilutions of different peptides were added and the plates incubated for additional 48 h at 37°C. Then medium was removed and cell viability was determined by staining the cells with crystal violet (0.05%) in methanol/PBS (1:5, v/v), for 10 min, followed by 3 washes with PBS. 10% acetic acid was added to each well for 10 min. OD was determined at 595 nm.

mutp53 = assay: Summary score of peptide functional screens; conditions: overall score over conformation, DNA binding, viability and PCR screens
HOP62 = assay: Crystal violet viability assay, HOP62; assay type: cell-based, human; design: key: score 0- no effect-white; score 6- as or more effective than positive control- black; conditions: score 0-6 compared to positive control, 48 h
Excerpt: as §1, §2

## LRCLLLLIGRVGRRRRRRRR [pCAP-24R, pCAP-24 with poly arginine tail]
mutp53^R175H
  Conform H1299: 3
EP156
  Viability EP156: 4
mutp53
  SCORE: 34

## myr-RRKILFIRLMHNKH [pCAP-227, myristoylated peptide, similarity to GAS2]
mutp53^R175H
  Conform H1299: 2
EP156
  Viability EP156: 4
HOP62
  Viability HOP62: 6
mutp53
  SCORE: 56

## EVTFRHSVV [pCAP-1, randomly selected peptide used as inert comparison]
HOP62
  Viability HOP62: 3
mutp53
  SCORE: 19

## HHPWTHHQRWS [pCAP-20]
mutp53^R175H
  Conform H1299: 2
mutp53
  SCORE: 19

## YRRLLIGMMWRRRRRRRRR [pCAP-68]
mutp53^R175H
  reactivity of p53^R175H with PAb1620 and PAb240: increased the reactivity of p53^R175H with PAb1620 and decreased its reactivity with PAb240
  Conform H1299: 4
EP156
  Viability EP156: 3
HOP62
  Viability HOP62: 5
mutp53
  SCORE: 37

## WNHHHSTPHPAHRRRRRR [pCAP-97R, pCAP-97 with poly arginine tail]
mutp53^R175H
  Conform H1299: 1
EP156
  Viability EP156: 4
HOP62
  Viability HOP62: 4
mutp53
  SCORE: 46

## HANLHHT [pCAP-87]
mutp53^R175H
  Conform H1299: 3
EP156
  Viability EP156: 4
HOP62
  Viability HOP62: 3
mutp53
  SCORE: 32

## LRCLLLLIGRVG [pCAP-24]
mutp53^R175H
  Conform H1299: 3
EP156
  Viability EP156: 4
mutp53
  SCORE: 23

## IRGRIIRRRRRRRRR [pCAP-54R, pCAP-54 with poly arginine tail]
mutp53^R175H
  Conform H1299: 1
EP156
  Viability EP156: 4
HOP62
  Viability HOP62: 2
mutp53
  SCORE: 28

## IRGRIIR [pCAP-54]
mutp53^R175H
  reactivity of p53^R175H with PAb1620 and PAb240: increased the reactivity of p53^R175H with PAb1620 and decreased its reactivity with PAb240
  Conform H1299: 3
EP156
  Viability EP156: 4
mutp53
  SCORE: 23

## LHSKTLVL [pCAP-17]
mutp53^R175H
  Conform H1299: 2
EP156
  Viability EP156: 4
mutp53
  SCORE: 20

## IRILMFLIGCGRRRRRRRRR [pCAP-23R, pCAP-23 with poly arginine tail]
mutp53^R175H
  Conform H1299: 2
EP156
  Viability EP156: 4
HOP62
  Viability HOP62: 3
mutp53
  SCORE: 24

## IRILMFLIGCGR [pCAP-23]
mutp53^R175H
  Conform H1299: 2
EP156
  Viability EP156: 4
HOP62
  Viability HOP62: 3
mutp53
  SCORE: 21

## SFILFIRRGRLG [pCAP-60]
mutp53^R175H
  reactivity of p53^R175H with PAb1620 and PAb240: increased the reactivity of p53^R175H with PAb1620 and decreased its reactivity with PAb240
EP156
  Viability EP156: 4
HOP62
  Viability HOP62: 3
mutp53
  SCORE: 26

## myr-PRVLPSPHTIHPSQYP [pCAP-229, myristoylated peptide, similarity to HIPK2]
EP156
  Viability EP156: 3
HOP62
  Viability HOP62: 4
mutp53
  SCORE: 35

## myr-RRKHNKHRPEPDSDER [pCAP-221]
EP156
  Viability EP156: 5
HOP62
  Viability HOP62: 5
mutp53
  SCORE: 58

## YPTQGHLR [pCAP-36]
mutp53^R175H
  Conform H1299: 5
EP156
  Viability EP156: 4
HOP62
  Viability HOP62: 3
mutp53
  SCORE: 32

## myr-RRIRDPRILLLHFD [pCAP-325]
EP156
  Viability EP156: 4
HOP62
  Viability HOP62: 4
mutp53
  SCORE: 53

## SFILFIRRGRLGRRRRRRRRR [pCAP-60R, pCAP-60 with poly arginine tail]
EP156
  Viability EP156: 2
HOP62
  Viability HOP62: 2
mutp53
  SCORE: 32

## myr-RRLIVRILKLPNPPER [pCAP-242]
mutp53^R175H
  Conform H1299: 2
EP156
  Viability EP156: 6
HOP62
  Viability HOP62: 5
mutp53
  SCORE: 55

## WNHHHSTPHPAH [pCAP-97]
mutp53^R175H
  reactivity of p53^R175H with PAb1620 and PAb240: increased the reactivity of p53^R175H with PAb1620 and decreased its reactivity with PAb240
  Conform H1299: 1
EP156
  Viability EP156: 3
HOP62
  Viability HOP62: 4
mutp53
  SCORE: 39

## HSSHHHPVHSWN [pCAP-83]
mutp53^R175H
  Conform H1299: 4
EP156
  Viability EP156: 4
mutp53
  SCORE: 27
